Data: BindingDB's records for doi:10.1073/pnas.250483897 (University of Berne, 2000)
Where “and” joins values, the source holds several entries; their conditions need not be identical. Identical values can stand only once. Starred links: 1 amine or outer side, 2 acyl side, 3 side chain; linkers in the order of their positions; H or OH if unused. Positions of bridges follow the written chain, without caps; N, C: chain ends. Non-standard residues stand in square brackets, D forms with d. Residues, ends and D or L forms follow the SMILES beside them. *: point of attachment. pNA = O=[N+]([O-])c1ccc(N*)cc1; Nle = CCCC[CH](N)C(=O)O; CO = O=C([*:1])[*:2]

Tests used:
[1] = target: Somatostatin receptor type 4 (Homo sapiens, UniProt P31391); conditions: IC50 (nM)
Sequence of Somatostatin receptor type 4 (P31391 whole entry): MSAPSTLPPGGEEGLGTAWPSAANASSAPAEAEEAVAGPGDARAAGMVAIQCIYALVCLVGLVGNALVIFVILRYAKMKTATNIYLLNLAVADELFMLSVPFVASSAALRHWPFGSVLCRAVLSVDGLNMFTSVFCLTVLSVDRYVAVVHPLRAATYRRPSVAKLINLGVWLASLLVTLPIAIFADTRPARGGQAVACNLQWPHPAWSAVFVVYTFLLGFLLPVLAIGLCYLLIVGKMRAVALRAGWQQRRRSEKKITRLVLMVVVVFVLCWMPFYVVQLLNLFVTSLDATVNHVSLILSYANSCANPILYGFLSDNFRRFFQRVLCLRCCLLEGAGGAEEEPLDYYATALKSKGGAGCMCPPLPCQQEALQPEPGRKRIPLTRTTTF

[2] = target: Somatostatin receptor type 3 (Homo sapiens, UniProt P32745)
Sequence of Somatostatin receptor type 3 (P32745 whole entry): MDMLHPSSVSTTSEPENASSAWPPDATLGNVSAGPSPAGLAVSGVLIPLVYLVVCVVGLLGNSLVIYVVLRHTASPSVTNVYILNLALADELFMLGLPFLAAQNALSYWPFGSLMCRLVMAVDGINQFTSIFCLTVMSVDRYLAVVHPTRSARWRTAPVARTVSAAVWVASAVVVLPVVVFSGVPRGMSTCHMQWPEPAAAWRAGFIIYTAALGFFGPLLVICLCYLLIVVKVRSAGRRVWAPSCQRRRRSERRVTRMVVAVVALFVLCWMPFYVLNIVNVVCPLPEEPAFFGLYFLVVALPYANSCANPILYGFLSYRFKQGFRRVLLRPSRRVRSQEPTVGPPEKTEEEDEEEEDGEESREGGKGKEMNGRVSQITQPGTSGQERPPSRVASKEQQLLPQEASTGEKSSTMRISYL

[3] = target: Somatostatin receptor type 5 (Homo sapiens, UniProt P35346)
Sequence of Somatostatin receptor type 5 (P35346 whole entry): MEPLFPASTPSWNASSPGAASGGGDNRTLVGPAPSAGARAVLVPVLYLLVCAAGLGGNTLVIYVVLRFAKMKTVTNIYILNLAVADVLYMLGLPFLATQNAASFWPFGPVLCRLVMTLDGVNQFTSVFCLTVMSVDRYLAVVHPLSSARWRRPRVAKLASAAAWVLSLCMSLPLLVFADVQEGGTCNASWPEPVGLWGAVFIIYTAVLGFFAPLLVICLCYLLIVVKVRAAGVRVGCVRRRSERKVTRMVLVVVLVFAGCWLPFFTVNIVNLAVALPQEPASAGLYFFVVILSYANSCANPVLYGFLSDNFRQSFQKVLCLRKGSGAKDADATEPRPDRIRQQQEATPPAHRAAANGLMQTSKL

IC50 [1] | IC50 [2] [µM] | IC50 [3] [µM] | Structure (SMILES)
> 10000 nM | 0.0067 | > 10 | C[C@@H](O)[C@@H]1NC(=O)[C@H](CCCCN)NC(=O)[C@@H](N(C)C(=O)c2ccc3ccccc3c2)NC(=O)[C@H](Cc2ccc(O)cc2)NC(=O)[C@H](Cc2ccccc2)NC(=O)[C@H](NC(N)=O)CSSC[C@@H](C(=O)O)NC(=O)[C@H](Cc2ccccc2)NC1=O [Carbamoyl-des-AA 1,2,4,5,12,13[D-Cys3,Tyr7, D-Agl8(Me,2-naphthoyl)]-SS(sst3-ODN-8)]
> 10000 nM | 0.115 |  | C[C@@H](O)[C@@H]1NC(=O)[C@H](CCCCN)NC(=O)[C@@H](N(C)C(=O)c2ccc3ccccc3c2)NC(=O)[C@H](Cc2ccccc2)NC(=O)[C@H](Cc2ccccc2)NC(=O)[C@H](N)CSSC[C@@H](C(=O)O)NC(=O)[C@H](Cc2ccccc2)NC1=O [des-AA 1,2,4,5,12,13[D-Cys3, D-Agl8(Me,2-naphthoyl)]-SS]
> 10000 nM | 0.07 | > 10 | C[C@@H](O)[C@@H]1NC(=O)[C@H](CCCCN)NC(=O)[C@@H](N(C)C(=O)c2ccc3ccccc3c2)NC(=O)[C@H](Cc2ccccc2)NC(=O)[C@H](Cc2ccccc2)NC(=O)[C@@H](N)CSSC[C@@H](C(=O)O)NC(=O)[C@H](Cc2ccccc2)NC1=O [des-AA 1,2,4,5,12,13[DAgl8(Me,2-naphthoyl)]-SS]
> 10000 nM and 1000 nM | 0.039 | > 10 | C[C@@H](O)[C@@H]1NC(=O)[C@H](CCCCN)NC(=O)[C@@H](N(C)C(=O)c2ccc3ccccc3c2)NC(=O)[C@H](Cc2ccc(O)cc2)NC(=O)[C@H](Cc2ccccc2)NC(=O)[C@H](N)CSSC[C@@H](C(=O)O)NC(=O)[C@H](Cc2ccccc2)NC1=O [des-AA 1,2,4,5,12,13[D-Cys3,Tyr7, D-Agl8(Me,2-naphthoyl)]-SS]
165 nM |  |  | C[C@@H](O)[C@@H]1NC(=O)[C@H](CCCCN)NC(=O)[C@@H](NC(=O)c2ccc3ccccc3c2)NC(=O)[C@H](Cc2ccccc2)NC(=O)[C@H](Cc2ccccc2)NC(=O)[C@@H](N)CSSC[C@@H](C(=O)O)NC(=O)[C@H](Cc2ccccc2)NC1=O [des-AA 1,2,4,5,12,13[D-2Nal8]-SS (ODN-8)]
> 10000 nM | 0.127 | > 10 | CCCCC(NC(=O)NC(Cc1ccccc1)C(=O)Nc1ccc([N+](=O)[O-])cc1)C(=O)NC(CCCCN)C(=O)OC (stereo unspecified) [CAS_5311373] ({pNA-Phe-CO}-[Nle]-Lys-OMe; configuration not given here)
2.5 nM | 0.0068 | 0.013 | CSCC[C@H](NC(=O)[C@H](CCCN=C(N)N)NC(=O)[C@@H](N)CC(=O)O)C(=O)N1CCC[C@H]1C(=O)N[C@H]1CSSC[C@@H](C(=O)N[C@@H](CCCCN)C(=O)O)NC(=O)[C@H](CO)NC(=O)[C@H](CO)NC(=O)[C@H](Cc2ccccc2)NC(=O)[C@H]([C@@H](C)O)NC(=O)[C@H](CCCCN)NC(=O)[C@H](Cc2c[nH]c3ccccc23)NC(=O)[C@H](Cc2ccccc2)NC(=O)[C@H](Cc2ccccc2)NC(=O)[C@H](CC(N)=O)NC(=O)[C@H](CCCN=C(N)N)NC1=O [Cortistatin]

Structure (SMILES) | IC50 [1] | IC50 [2] [µM] | IC50 [3] [µM]
C[C@@H](O)[C@@H]1NC(=O)[C@H](CCCCN)NC(=O)[C@@H](Cc2c[nH]c3ccccc23)NC(=O)[C@H](Cc2ccccc2)NC(=O)[C@H](Cc2ccccc2)NC(=O)[C@@H](N)CSSC[C@@H](C(=O)O)NC(=O)[C@H](Cc2ccccc2)NC1=O [H-c(Cys3-Phe6-Phe7-DTrp8-Lys9-Thr10-Phe11-Cys14)-OH] (H-CFF[dW]KTFC-OH; disulfide 1-8) | 1.3 nM | 0.013 | 0.045
